Assay [1] has as its target T1, HSF-PLA2 (extracellular PLA2 obtained from human synovial fluid) (Homo sapiens, UniProt P14555).
T1 construct: extracellular enzyme obtained from human synovial fluid; from tissue; host or cells: pooled human synovial fluid (0.1% v/v in the assay)
T1 sequence (P14555 21-144): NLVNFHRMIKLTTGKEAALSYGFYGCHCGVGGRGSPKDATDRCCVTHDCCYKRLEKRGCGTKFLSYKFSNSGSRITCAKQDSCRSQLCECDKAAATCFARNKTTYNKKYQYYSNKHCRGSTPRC
Put plainly: Assay for Inhibition of HSF-PLA2 In Vitro. The assay is classed as biochemical. As to conditions: for inhibition at 10 µM: read-out: % Inhib of HSF-PLA2. The protocol: The PLA2 used in this test is the extracellular enzyme obtained from human synovial fluid (HSF-PLA2). The assay for HSF-PLA2 activity was a modification of the described method [Franson R., Dobrow R., Weiss, J., Elsbach P., and […]. Lipid Res., 19, 18-23 (1978)] which was conducted using [1-^14 C]-oleate-labelled E. coli substrate in excess at a final concentration of 20,000 dpm/ml. This was equivalent to 18.2 mM of cell membrane phospholipid phosphorus and 2×10^9 autoclaved E. coli/ml. The optimal conditions which were developed for the assay of HSF-PLA2 inhibitors are summarized as follows. […] The reaction was terminated by the addition of 2.5 ml of chloroform-methanol (1 to 1.5, v/v). The extraction of lipids from the stopped reaction mixture was conducted by the further additions of 0.5 ml of chloroform and 1 ml of water with mixing. […] The extracted lipid residue was redissolved in […] of a solution containing carrier oleic acid (0.2 mg/ml) of […]]). […] This TLC system rapidly (6 minutes) resolved the enzymatically released product, ^14 C-oleic acid, from the unreacted ^14 C-phospholipid substrate. The unsaturated lipids were located on the chromatogram by a brief exposure to iodine vapor. The oleic acid zone (Rf value 0.95) and phospholipid zone (origin) were cut out, chopped into small pieces, shaken with 2 ml of ethanol-water (80 to 20, v/v) and 15 ml of Aquasol and counted for radioactivity. A control incubation of substrate in the absence of HSF-PLA2 was performed in each experiment. The PLA2 activity of the human synovial fluid was corrected for this small control value. […] The specific activity of PLA2 in the pooled human synovial fluid under the optimal assay conditions was 49.2 nmoles [1-^14 C]-oleic acid released hour^-1 mg^-1. The IC50 (μM concentration of test compound that produces 50% inhibition of PLA2 activity) was determined for each test compound.

In assay [2] the test system is TPA-induced mouse ear edema. Put plainly: TPA Induced Mouse Ear Edema Test (ear punch weight). It counts as in vivo, male CD-1 mice. As to conditions: 30 minutes prior to TPA, ear punch weight at 6 hours; for inhibition in vivo at 1 mg / inhibition in vivo at 0.3 mg: Mus musculus; for inhibition in vivo at 1 mg: 1 mg topical, read-out: % Inhib of TPA Mouse Ear Edema (1 mg); for inhibition in vivo at 0.3 mg: 0.3 mg topical, read-out: % Inhib of TPA Mouse Ear Edema (0.3 mg). As for the experimental part: The TPA-induced mouse ear edema test, a model of irritant-induced contact dermatitis is described in the following reference: J. M. Young, B. M. Wagner and […]. Invest. Dermatology 80, 48-52 (1983). For this test, 10 μl of 12-O-tetradecanoylphorbol-13-acetate (TPA), dissolved in a vehicle of pyridine: water: diethyl ether (20:5:75), was applied to the outside of the right ear of 3-4 week old male CD-1 mice (8 animals per group). The test compounds were dissolved in the same vehicle and 10 μl was applied to the inside of the same ear 30 minutes prior to the application of TPA. Ear punches (6 mm) were removed at 6 hours after TPA application, weighed and assayed for myeloperoxidase (MPO) activity as described in the following reference: P. P. Bradley, […]. Christensen and G. Rothstein, J. Invest. Dermatology 78, 206-209 (1982). The wet weight of the ear biopsy punches is a measure of the ear edema and the level of MPO activity in the ear punches is an indicator of neutrophil infiltration. The data are expressed as percent inhibition of drug-[…] relative to the control group.

The structures appear in SMILES notation. Where a name gives a salt, the structure may show the parent alone.

For the compound `O=C(O)c1cc(OCCCOc2ccc(-c3ccccc3)cc2)cc(OCCCOc2ccc(-c3ccccc3)cc2)c1` [Example 6, 3,5-bis[3-(1,1'-Biphenyl-4-yloxy)propoxy]benzoic acid], the IC50 in assay [1] (given as 50 % inhibition at the given concentration, 14C-oleate-labelled E. coli substrate, pH 7.3, 37° C., 30 minutes, read-out: % Inhib of HSF-PLA2: 50 (concentration) = IC50 (μM concentration that produces 50% inhibition of PLA2 activity)) amounted to 3 µM.

For the compound `CCCCCCCCCCCCCCCCCCOc1cc(OCCOc2ccc3ccccc3c2)cc(C(=O)O)c1` [Example 15, 3-[2-(2-Naphthalenyloxy)ethoxy]-5-(octadecyloxy) benzoic acid], in assay [1], the inhibition at 10 µM is 77%.

Consider `CCCCCCCCCCCCCCCCCCOc1ccc(C(=O)O)c(OCCCOc2ccc(O)cc2)c1` [Example 54, 2-[3-(4-Hydroxyphenoxy)propoxy]-4-(octadecyloxy) benzoic acid], for which, in assay [1], the inhibition at 10 µM was 79%. In addition, in assay [2], the inhibition in vivo at 1 mg was 31%.

Consider `CCCCCCCCCCOc1cc(OCCCCCCc2cccc(O)c2O)cc(C(=O)OCCN(CC)CC)c1` [Example 71, 3-(Decyloxy)-5-[[6-(2,3-dihydroxyphenyl)hexyl]oxy]benzoic acid 2-(diethylamino)ethyl ester monohydrochloride salt], for which, in assay [2], the inhibition in vivo at 1 mg came out at 57%.

Regarding `CCCCCCCCCCOc1cc(OCCCCCCc2cccc(O)c2O)cc(C(=O)OC)c1` [Example 66, 3-(Decyloxy)-5-[[6-(2,3-dihydroxyphenyl)hexyl]oxy]benzoic acid methyl ester], the inhibition at 10 µM in assay [1] was 22%. In addition, in assay [2], the inhibition in vivo at 0.3 mg is 55%.

Turning to `CCCCCCCCCCCCCCCCCCOc1ccc(C(=O)O)c(OCCCOc2ccc(OCc3ccccc3)cc2)c1` [Example 53, 4-(Octadecyloxy)-2-[3-[4-(phenylmethoxy)phenoxy]propoxy]benzoic acid], the inhibition at 10 µM in assay [1] is 55%. In addition, the inhibition in vivo at 1 mg in assay [2] was 17%.

Take `CCCCCCCCCCCCCCCCCCOc1ccc(OCCCOc2ccc(OCc3ccccc3)cc2)c(C(=O)O)c1` [Example 49, 5-(Octadecyloxy)-2-[3-[4-(phenylmethoxy)phenoxy]propoxy]benzoic acid]: the inhibition at 10 µM in assay [1] is 79%. Further, in assay [2], the inhibition in vivo at 0.3 mg worked out at 27%.

With `CCCCCCCCCCCCCCCCCCOc1cc(OCCCOc2ccc(O)cc2)cc(C(=O)OC)c1` [Example 34, 3-[3-(4-Hydroxyphenoxy)propoxy]-5-(octadecyloxy) benzoic acid methyl ester], the inhibition at 10 µM in assay [1] amounted to 2%. For the same compound, the inhibition in vivo at 1 mg in assay [2] was 42%.

As for `O=C(O)c1cc(OCCCOc2ccc(OCc3ccccc3)cc2)cc(OCCCOc2ccc(OCc3ccccc3)cc2)c1` [Example 41, 3,5-bis[3-[4-(Phenylmethoxy)phenoxy]propoxy]benzoic acid], the inhibition at 10 µM in assay [1] turned out to be 54%. Further, in assay [2], the inhibition in vivo at 1 mg was 54%.

Take `CCCCCCCCCCCCCCCCCCOc1cccc(C(=O)O)c1OCCCOc1ccc(OCc2ccccc2)cc1` [Example 57, 3-(Octadecyloxy)-2-[3-[4-(phenylmethoxy)phenoxy]propoxy]benzoic acid]: in assay [1], the inhibition at 10 µM is 91%. Moreover, the inhibition in vivo at 1 mg in assay [2] was determined as 62%.

For `CCCCCCCCCCCCCCOc1cc(OCCCOc2ccc(O)cc2)cc(C(=O)O)c1` [Example 37, 3-[3-(4-Hydroxyphenoxy)propoxy]-5-(tetradecyloxy) benzoic acid], the inhibition at 10 µM in assay [1] came to 75%. Besides, the inhibition in vivo at 1 mg in assay [2] amounted to 57%.

Turning to `CCCCCCCCCCOc1cc(OCCCOc2ccc(OCc3ccccc3)cc2)cc(C(=O)O)c1` [Example 39, 3-(Decyloxy)-5-[3-[4-(phenylmethoxy)phenoxy]propoxy]benzoic acid], the inhibition at 10 µM in assay [1] came out at 61%.

For the compound `CCCCCCCCCCCCCCOc1cc(OCCCCCCc2cccc(O)c2O)cc(C(=O)OC)c1` [Example 61, 3-[[6-(2,3-Dihydroxyphenyl)hexyl]oxy]-5-(tetradecyloxy) benzoic acid methyl ester], the inhibition at 10 µM in assay [1] was 17%. Besides, in assay [2], the inhibition in vivo at 1 mg came to 44%.

For the compound `CCCCCCCCCCCCCCCCCCOc1cc(OCCCCCCOc2ccc(O)cc2)cc(C(=O)O)c1` [Example 44], in assay [1], the inhibition at 10 µM was found to be 94%. For the same compound, in assay [2], the inhibition in vivo at 1 mg was determined as 46%.

On to `CCCCCCCCCCCCCCCCCCOc1cc(OCCCOc2ccc(S(C)(=O)=O)cc2)cc(C(=O)O)c1` [Example 26, 3-[3-[4-(Methylsulfonyl)phenoxy]propoxy]-5-(octadecyloxy)benzoic acid], for which, in assay [1], the inhibition at 10 µM is 86%. The inhibition in vivo at 1 mg in assay [2] worked out at 42%.

For `CCCCCCCCCCCCCCCCCCOc1cc(OCCCOc2ccccc2O)cc(C(=O)O)c1` [Example 46, 3-[3-(2-Hydroxyphenoxy)propoxy]-5-(octadecyloxy) benzoic acid], the inhibition at 10 µM in assay [1] was found to be 91%. Also, in assay [2], the inhibition in vivo at 0.3 mg is 47%.

As for `O=C(O)c1cc(OCCCOc2ccc(O)cc2)cc(OCCCOc2ccc(O)cc2)c1` [Example 42, 3,5-bis[3-(4-Hydroxyphenoxy)propoxy]benzoic acid], the inhibition at 10 µM in assay [1] was 5%. Also, the inhibition in vivo at 1 mg in assay [2] was found to be 43%.

Take `O=C(O)c1cc(OCCOc2cccc3ccccc23)cc(OCCOc2cccc3ccccc23)c1` [Example 8A, 3,5-bis[2-(1-naphthalenyloxy)ethoxy]benzoic acid]: in assay [1], the inhibition at 10 µM turned out to be 67%.

For `CCCCCCCCCCOc1cc(OCCCCCCc2cccc(O)c2O)cc(C(=O)OCOC(C)=O)c1` [Example 72, 3-(Decyloxy)-5-[[6-(2,3-dihydroxyphenyl)hexyl]oxy]benzoic acid (acetyloxy)methyl ester], the “% Inhib of TPA Mouse Ear Edema (0.1 mg)” value in assay [2] (0.1 mg topical) came out at 52%.

With `CCCCCCCCCCCCCCOc1cc(OCCCOc2ccc(OCc3ccccc3)cc2)cc(C(=O)O)c1` [Example 36, 3-[3-[4-(Phenylmethoxy)phenoxy]propoxy]-5-(tetradecyloxy)benzoic acid], the inhibition at 10 µM in assay [1] stood at 87%. For the same compound, the inhibition in vivo at 1 mg in assay [2] turned out to be 52%.

For the compound `CCCCCCCCCCCCCCCCCCOc1cc(OCCCOc2ccc([S+](C)[O-])cc2)cc(C(=O)O)c1` (centres unmarked) [Example 24, 3-[3-[4-(Methylsulfinyl)phenoxy]propoxy]-5-(octadecyloxy)benzoic acid], in assay [1], the inhibition at 10 µM amounted to 72%. In addition, the inhibition in vivo at 1 mg in assay [2] came to 43%.

For the compound `CCCCCCCCCCCCCCCCCCOc1ccc(OCCCOc2ccc(O)cc2)c(C(=O)O)c1` [Example 50, 2-[3-(4-Hydroxyphenoxy)propoxy]-5-(octadecyloxy) benzoic acid], in assay [1], the inhibition at 10 µM is 93%. Also, the inhibition in vivo at 1 mg in assay [2] was 45%.

Source of the values: patent US5374772A, “Substituted benzoic acids, inhibitors of phospholipases A2” (Hoffmann-LaRoche Inc., priority 1993, dated 1994).
